We go through 16 compounds from paper PMC2191316 (The Journal of Experimental Medicine, 1994).

Residues, ends and D or L forms follow the SMILES beside them.

This experiment addresses DRB5*0101 molecules (Homo sapiens, UniProt P01903+Q30154). Description: Inhibition of radiolabeled TT. Format: binding.
For the compound `CC[C@H](C)[C@H](NC(=O)[C@H](CC(N)=O)NC(=O)[C@H](CCCCN)NC(=O)[C@H](Cc1ccccc1)NC(=O)[C@H](C)NC(=O)[C@H](Cc1c[nH]cn1)NC(=O)[C@@H](NC(=O)[C@@H](NC(=O)[C@@H]1CCCN1C(=O)[C@H](CC(N)=O)NC(=O)[C@@H](N)CCC(=O)O)C(C)C)C(C)C)C(=O)N[C@H](C(=O)N[C@H](C(=O)N1CCC[C@H]1C(=O)N[C@@H](CCCNC(=N)N)C(=O)O)[C@@H](C)O)C(C)C` [(85-99)91A] (H-ENPVVHAFKNIVTPR-OH), the midpoint of inhibition, the IC50, lay at 1300 nM.
For the compound `CC[C@H](C)[C@H](NC(=O)[C@H](CC(N)=O)NC(=O)[C@H](CCCCN)NC(=O)[C@H](Cc1ccccc1)NC(=O)[C@H](Cc1ccccc1)NC(=O)[C@H](C)NC(=O)[C@@H](NC(=O)[C@@H](NC(=O)[C@@H]1CCCN1C(=O)[C@H](CC(N)=O)NC(=O)[C@@H](N)CCC(=O)O)C(C)C)C(C)C)C(=O)N[C@H](C(=O)N[C@H](C(=O)N1CCC[C@H]1C(=O)N[C@@H](CCCNC(=N)N)C(=O)O)[C@@H](C)O)C(C)C` [(85-99)90A] (H-ENPVVAFFKNIVTPR-OH), the midpoint of inhibition, the IC50, lay at 640 nM.
The same measure for `CC[C@H](C)[C@H](NC(=O)[C@H](CC(N)=O)NC(=O)[C@H](CCCCN)NC(=O)[C@H](Cc1ccccc1)NC(=O)[C@H](Cc1ccccc1)NC(=O)[C@H](Cc1c[nH]cn1)NC(=O)[C@@H](N)C(C)C)C(=O)N[C@H](C(=O)N[C@H](C(=O)N1CCC[C@H]1C(=O)N[C@@H](CCCNC(=N)N)C(=O)O)[C@@H](C)O)C(C)C` [(89-99)] (H-VHFFKNIVTPR-OH): 1200 nM.
As to `CC[C@H](C)[C@H](NC(=O)[C@H](CC(N)=O)NC(=O)[C@H](CCCCN)NC(=O)[C@H](Cc1ccccc1)NC(=O)[C@H](Cc1ccccc1)NC(=O)[C@H](Cc1c[nH]cn1)NC(=O)[C@H](C)NC(=O)[C@@H](NC(=O)[C@@H]1CCCN1C(=O)[C@H](CC(N)=O)NC(=O)[C@@H](N)CCC(=O)O)C(C)C)C(=O)N[C@H](C(=O)N[C@H](C(=O)N1CCC[C@H]1C(=O)N[C@@H](CCCNC(=N)N)C(=O)O)[C@@H](C)O)C(C)C` [(85-99)89A] (H-ENPVAHFFKNIVTPR-OH), half-maximal inhibition (IC50) was put at 690 nM.
As for `CC[C@H](C)[C@H](NC(=O)[C@H](CC(N)=O)NC(=O)[C@H](CCCCN)NC(=O)[C@H](C)NC(=O)[C@H](Cc1ccccc1)NC(=O)[C@H](Cc1c[nH]cn1)NC(=O)[C@@H](NC(=O)[C@@H](NC(=O)[C@@H]1CCCN1C(=O)[C@H](CC(N)=O)NC(=O)[C@@H](N)CCC(=O)O)C(C)C)C(C)C)C(=O)N[C@H](C(=O)N[C@H](C(=O)N1CCC[C@H]1C(=O)N[C@@H](CCCNC(=N)N)C(=O)O)[C@@H](C)O)C(C)C` [(85-99)92A] (H-ENPVVHFAKNIVTPR-OH), the midpoint of inhibition, the IC50, lay at 8200 nM.
To `CC[C@H](C)[C@H](NC(=O)[C@H](CC(N)=O)NC(=O)[C@H](CCCCN)NC(=O)[C@H](Cc1ccccc1)NC(=O)[C@H](Cc1ccccc1)NC(=O)[C@H](Cc1c[nH]cn1)NC(=O)[C@@H](NC(=O)[C@@H](NC(=O)[C@@H]1CCCN1C(=O)[C@H](CC(N)=O)NC(=O)[C@@H](N)CCC(=O)O)C(C)C)C(C)C)C(=O)N[C@H](C(=O)N[C@H](C(=O)N1CCC[C@H]1C(=O)N[C@@H](C)C(=O)O)[C@@H](C)O)C(C)C` [(85-99)99A] (H-ENPVVHFFKNIVTPA-OH) belongs 2300 nM.
In the case of `CC[C@H](C)[C@H](NC(=O)[C@H](C)NC(=O)[C@H](CCCCN)NC(=O)[C@H](Cc1ccccc1)NC(=O)[C@H](Cc1ccccc1)NC(=O)[C@H](Cc1c[nH]cn1)NC(=O)[C@@H](NC(=O)[C@@H](NC(=O)[C@@H]1CCCN1C(=O)[C@H](CC(N)=O)NC(=O)[C@@H](N)CCC(=O)O)C(C)C)C(C)C)C(=O)N[C@H](C(=O)N[C@H](C(=O)N1CCC[C@H]1C(=O)N[C@@H](CCCNC(=N)N)C(=O)O)[C@@H](C)O)C(C)C` [(85-99)94A] (H-ENPVVHFFKAIVTPR-OH), the IC50 – broadly, the concentration needed to halve the response being measured – is 140 nM.
The compound `CC[C@H](C)[C@H](NC(=O)[C@H](CC(N)=O)NC(=O)[C@H](CCCCN)NC(=O)[C@H](Cc1ccccc1)NC(=O)[C@H](Cc1ccccc1)NC(=O)[C@H](Cc1c[nH]cn1)NC(=O)[C@@H](NC(=O)[C@@H](NC(=O)[C@@H]1CCCN1C(=O)[C@H](CC(N)=O)NC(=O)[C@@H](N)CCC(=O)O)C(C)C)C(C)C)C(=O)N[C@@H](C)C(=O)N[C@H](C(=O)N1CCC[C@H]1C(=O)N[C@@H](CCCNC(=N)N)C(=O)O)[C@@H](C)O` [(85-99)96A] (H-ENPVVHFFKNIATPR-OH) came in with an IC50 of 730 nM.
To `CC[C@H](C)[C@H](NC(=O)[C@H](CC(N)=O)NC(=O)[C@H](CCCCN)NC(=O)[C@H](Cc1ccccc1)NC(=O)[C@H](Cc1ccccc1)NC(=O)[C@H](Cc1c[nH]cn1)NC(=O)[C@@H](NC(=O)[C@@H](NC(=O)[C@H](C)NC(=O)[C@H](CC(N)=O)NC(=O)[C@@H](N)CCC(=O)O)C(C)C)C(C)C)C(=O)N[C@H](C(=O)N[C@H](C(=O)N1CCC[C@H]1C(=O)N[C@@H](CCCNC(=N)N)C(=O)O)[C@@H](C)O)C(C)C` [(85-99)87A] (H-ENAVVHFFKNIVTPR-OH) belongs 610 nM.
Turning to `CC(C)[C@H](NC(=O)[C@H](C)NC(=O)[C@H](CC(N)=O)NC(=O)[C@H](CCCCN)NC(=O)[C@H](Cc1ccccc1)NC(=O)[C@H](Cc1ccccc1)NC(=O)[C@H](Cc1c[nH]cn1)NC(=O)[C@@H](NC(=O)[C@@H](NC(=O)[C@@H]1CCCN1C(=O)[C@H](CC(N)=O)NC(=O)[C@@H](N)CCC(=O)O)C(C)C)C(C)C)C(=O)N[C@H](C(=O)N1CCC[C@H]1C(=O)N[C@@H](CCCNC(=N)N)C(=O)O)[C@@H](C)O` [(85-99)95A] (H-ENPVVHFFKNAVTPR-OH), the IC50 was determined as 1100 nM.
Compound `CC[C@H](C)[C@H](NC(=O)[C@H](CC(N)=O)NC(=O)[C@H](CCCCN)NC(=O)[C@H](Cc1ccccc1)NC(=O)[C@H](Cc1ccccc1)NC(=O)[C@H](Cc1c[nH]cn1)NC(=O)[C@@H](NC(=O)[C@@H](NC(=O)[C@@H]1CCCN1C(=O)[C@H](CC(N)=O)NC(=O)[C@H](C)N)C(C)C)C(C)C)C(=O)N[C@H](C(=O)N[C@H](C(=O)N1CCC[C@H]1C(=O)N[C@@H](CCCNC(=N)N)C(=O)O)[C@@H](C)O)C(C)C` [(85-99)85A] (H-ANPVVHFFKNIVTPR-OH) had an IC50 of 420 nM.
For `CC[C@H](C)[C@H](NC(=O)[C@H](CC(N)=O)NC(=O)[C@H](CCCCN)NC(=O)[C@H](Cc1ccccc1)NC(=O)[C@H](Cc1ccccc1)NC(=O)[C@H](Cc1c[nH]cn1)NC(=O)[C@@H](NC(=O)[C@@H](NC(=O)[C@@H]1CCCN1C(=O)[C@H](CC(N)=O)NC(=O)[C@@H](N)CCC(=O)O)C(C)C)C(C)C)C(=O)N[C@H](C(=O)N[C@H](C(=O)N[C@@H](C)C(=O)N[C@@H](CCCNC(=N)N)C(=O)O)[C@@H](C)O)C(C)C` [(85-99)98A] (H-ENPVVHFFKNIVTAR-OH), the half-maximal inhibitory concentration (IC50) was determined as 350 nM.
In turn, `CC[C@H](C)[C@H](NC(=O)[C@H](CC(N)=O)NC(=O)[C@H](CCCCN)NC(=O)[C@H](Cc1ccccc1)NC(=O)[C@H](Cc1ccccc1)NC(=O)[C@H](Cc1c[nH]cn1)NC(=O)[C@@H](NC(=O)[C@@H](NC(=O)[C@@H]1CCCN1C(=O)[C@H](CC(N)=O)NC(=O)[C@H](CCC(=O)O)NC(=O)[C@@H](N)CC(=O)O)C(C)C)C(C)C)C(=O)N[C@H](C(=O)N[C@H](C(=O)N1CCC[C@H]1C(=O)N[C@@H](CCCNC(=N)N)C(=O)N[C@H](C(=O)N1CCC[C@H]1C(=O)N1CCC[C@H]1C(=O)O)[C@@H](C)O)[C@@H](C)O)C(C)C` [(84-102)] gave an IC50 of 55 nM.
In the case of `CC[C@H](C)[C@H](NC(=O)[C@H](CC(N)=O)NC(=O)[C@H](CCCCN)NC(=O)[C@H](Cc1ccccc1)NC(=O)[C@H](Cc1ccccc1)NC(=O)[C@H](Cc1c[nH]cn1)NC(=O)[C@@H](NC(=O)[C@H](C)NC(=O)[C@@H]1CCCN1C(=O)[C@H](CC(N)=O)NC(=O)[C@@H](N)CCC(=O)O)C(C)C)C(=O)N[C@H](C(=O)N[C@H](C(=O)N1CCC[C@H]1C(=O)N[C@@H](CCCNC(=N)N)C(=O)O)[C@@H](C)O)C(C)C` [(85-99)88A] (H-ENPAVHFFKNIVTPR-OH), half-maximal inhibition (IC50) was put at 945 nM.
`CC[C@H](C)[C@H](NC(=O)[C@H](CC(N)=O)NC(=O)[C@H](CCCCN)NC(=O)[C@H](Cc1ccccc1)NC(=O)[C@H](Cc1ccccc1)NC(=O)[C@H](Cc1c[nH]cn1)NC(=O)[C@@H](NC(=O)[C@@H](NC(=O)[C@@H]1CCCN1C(=O)[C@H](C)NC(=O)[C@@H](N)CCC(=O)O)C(C)C)C(C)C)C(=O)N[C@H](C(=O)N[C@H](C(=O)N1CCC[C@H]1C(=O)N[C@@H](CCCNC(=N)N)C(=O)O)[C@@H](C)O)C(C)C` [(85-99)86A] (H-EAPVVHFFKNIVTPR-OH) gave an IC50 of 940 nM.
For the compound `CC[C@H](C)[C@H](NC(=O)[C@H](CC(N)=O)NC(=O)[C@H](C)NC(=O)[C@H](Cc1ccccc1)NC(=O)[C@H](Cc1ccccc1)NC(=O)[C@H](Cc1c[nH]cn1)NC(=O)[C@@H](NC(=O)[C@@H](NC(=O)[C@@H]1CCCN1C(=O)[C@H](CC(N)=O)NC(=O)[C@@H](N)CCC(=O)O)C(C)C)C(C)C)C(=O)N[C@H](C(=O)N[C@H](C(=O)N1CCC[C@H]1C(=O)N[C@@H](CCCNC(=N)N)C(=O)O)[C@@H](C)O)C(C)C` [(85-99)93A] (H-ENPVVHFFANIVTPR-OH), the IC50 worked out at 2900 nM.
